This is an account of results in patent publication US20140065697A1, “CELLS AND METHODS FOR PRODUCING ISOBUTYRIC ACID” (Regents of the University of Minnesota, priority 2011, published 2014).

Series [1] deals with T1, PadA (Escherichia coli, UniProt P80668).
T1 construct: […]; 6xHis (N); made in house; host or cells: E. coli BL-21 harboring pREP4; plasmid pIBA10 (pQE9)
T1 sequence (P80668 1-499): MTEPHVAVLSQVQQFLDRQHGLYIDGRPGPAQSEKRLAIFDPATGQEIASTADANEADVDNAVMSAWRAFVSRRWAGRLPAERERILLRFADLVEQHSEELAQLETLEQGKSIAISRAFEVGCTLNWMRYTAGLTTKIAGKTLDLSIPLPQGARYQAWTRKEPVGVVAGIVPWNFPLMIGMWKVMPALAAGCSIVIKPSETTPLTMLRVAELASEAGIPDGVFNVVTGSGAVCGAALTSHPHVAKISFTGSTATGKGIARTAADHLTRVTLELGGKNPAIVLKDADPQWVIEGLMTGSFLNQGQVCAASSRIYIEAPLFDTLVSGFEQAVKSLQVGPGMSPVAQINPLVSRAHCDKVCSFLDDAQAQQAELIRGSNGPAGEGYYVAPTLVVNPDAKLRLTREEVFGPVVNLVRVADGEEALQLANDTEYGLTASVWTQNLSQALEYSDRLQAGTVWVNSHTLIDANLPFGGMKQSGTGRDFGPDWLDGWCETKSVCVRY
Kind of series: Measurement of PadA activity (NADH generation at 340 nm, Michaelis-Menten fit). It is filed as biochemical, E. coli. As to conditions: for kcat: substrate isobutyraldehyde. Here is the method:
(§1) Because it produced the greatest amount of isobutyrate, we selected PadA for further study. To characterize the enzyme, PadA was tagged with an N-terminal 6×His-tag, overexpressed, and purified through a Ni-NTA column. The kinetic parameters for conversion of isobutyraldehyde by PadA were determined by measuring the reduction of NAD+ to NADH at 340 nm. PadA activity toward isobutyraldehyde is much lower than that toward its natural physiological substrate phenylacetaldehyde.
(§2) pIBA10 was transformed into BL-21 E. coli host harboring the pREP4 plasmid (Qiagen; Valencia, Calif.). An overnight pre-culture was diluted 100-fold in 300 mL 2×YT rich medium containing 50 mg/L ampicillin, 25 mg/L kanamycin and 0.1 mM IPTG. Expression of recombinant protein was performed at 30° C. overnight.
(§3) The cell pellet was sonicated in 30 mL lysis buffer (250 mM NaCl, 2 mM DTT, 5 mM imidazole and 50 mM Tris pH 8.0). The cellular debris was removed by centrifugation at 15,000 RPM for 20 minutes. The supernatant was passed through a Ni-NTA column. Then the column was washed with 10 mL wash buffer (250 mM NaCl, 20 mM imidazole and 50 mM Tris pH 8.0) four times. Finally, the target protein was eluted with 10 mL elution buffer (250 mM NaCl, 250 mM imidazole and 50 mM Tris pH 8.0). The eluate was buffer-exchanged and concentrated into storage buffer ([…] tris buffer, pH 8.0, and 20% glycerol) using AMICON ULTRA centrifugal filter (Millipore Corp.; Billerica, Mass.). Protein concentration was determined by measuring the UV absorbance at 280 nm (extinction coefficient, 75070 cm^−1 M^−1). The concentrated protein solution was aliquoted (100 μl) into PCR tubes and flash frozen at −80° C. for long term storage.
(§4) Substrate isobutyraldehyde was purchased from Fisher Scientific International, Inc. (Hampton, N.H.), and NAD^+ was from New England Biolabs, Inc., (Ipswich, Mass.). The reaction mixture contained 0.5 mM NAD^+ and 0.2-4 mM isobutyraldehyde in assay buffer (50 mM NaH2PO4, pH 8.0, 1 mM DTT) with a total volume of 80 μl. The reactions were started by adding 2 μl […] (final enzyme concentration 25 nM), and the generation of NADH was monitored at 340 nm (extinction coefficient, 6.22 mM^−1 cm^−1). Kinetic parameters (kat and Km) were determined by fitting initial velocity data to the Michaelis-Menten equation using Origin software.

The next series concerns the target YqhD (Escherichia coli, UniProt Q46856). The conditions noted are these: Atsumi et al., 2010; cited from earlier work.
The subject of a further series is CC(C)C=O. Kind of series: Measurement of PadA activity (NADH generation at 340 nm, Michaelis-Menten fit). As to conditions: other: PadA, substrate isobutyraldehyde, 0.5 mM NAD+, pH 8.0, 30.0 °C. In kind it is biochemical, E. coli. The method, then: as §1, §2, §3, §4
Series [2] has as its target T1, PadA. The conditions noted are these: natural substrate phenylacetaldehyde (asterisked line); cited from earlier work.

Like-named read-outs stand apart in the source and are kept apart here.

YqhD, sequence (Q46856 whole entry): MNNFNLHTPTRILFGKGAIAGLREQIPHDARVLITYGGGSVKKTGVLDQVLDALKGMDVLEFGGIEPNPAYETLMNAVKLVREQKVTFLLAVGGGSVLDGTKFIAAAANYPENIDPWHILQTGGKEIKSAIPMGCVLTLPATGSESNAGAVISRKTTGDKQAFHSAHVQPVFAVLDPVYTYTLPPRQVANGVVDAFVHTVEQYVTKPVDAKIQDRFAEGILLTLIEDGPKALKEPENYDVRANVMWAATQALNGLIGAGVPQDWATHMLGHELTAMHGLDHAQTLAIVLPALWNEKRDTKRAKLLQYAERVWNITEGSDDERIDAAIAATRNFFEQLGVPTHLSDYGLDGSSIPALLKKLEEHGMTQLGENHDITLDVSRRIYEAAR

In general, kcat refers to the maximal rate divided by the concentration of active sites. For orientation: Km means the concentration of substrate that gives half-maximal velocity. On to `CC(C)C=O` [Isobutyraldehyde, isobutyraldehyde], for which, at PadA [1], the “Km value higher than toward phenylacetaldehyde” value worked out at 230 fold, the “kcat value lower than toward phenylacetaldehyde” value worked out at 4 fold and the kcat is 24.9 ± 0.5 s⁻¹. The kcat at PadA [1] (listed as isobutyraldehyde) was 24.9 s⁻¹. Further, the Km at YqhD is 1800 µM.
On to PadA (Escherichia coli K-12), for which the Km in the series with CC(C)C=O stood at 2670 µM.
With `O=CCc1ccccc1` [Phenylacetaldehyde, phenylacetaldehyde], on PadA [2], the Km is 11.6 µM and the kcat was 96.83 s⁻¹. On PadA [1], the “specificity constant kcat/Km higher than towards isobutyraldehyde” value is roughly 1000 fold.
